Data set [1] deals with transgenic mouse glioma cells (neurosphere cultures). Kind of data set: CytoTox-Fluor cytotoxicity assay, neurosphere glioma cultures. In kind it is cell-based. As to conditions: cdkn2a deletion, PDGFB amplification, TRPV1-deficient; 24 h; 5 at 20 μM, CBD at 10 μM. Here is the method: FIGS. 5A-D. Activity of 5 against neurosphere glioma cell cultures with clinically relevant mutations. Transgenic mouse glioma cells of defined molecular subtypes were generated by forced expression of EGFRvIII (classical GBM subtype), PDGFB (proneural GBM subtype) in cdkn2a-deficient and cdkn2a/TRPV1-doubly deficient subventricular neural precursors (NPC). These primary cell cultures were treated for 24 hours either with 10 μM CBD versus a corresponding vehicle-control (containing 0.01% DMSO) or 20 μM of 5 versus vehicle control (0.02% DMSO). Cytotoxicity was measured 24 h after incubation and base-line cytotoxicity levels in the controls were arbitrarily defined as 1. Read-outs from treated cells were normalized to their respective vehicle controls and -fold change of relative cytotoxicity was calculated. Each bar represents the mean±SD from two independent experiments; statistical significance, as determined by unpaired t-tests, is indicated: *** represents p<0.001; ** p<0.005; * p=0.0257; ns not significant).
Human mammary carcinoma MCF-7 (ATCC HTB22) cells were cultured in RPMI supplemented with 10% FBS. […]
The CytoTox-Fluor cytotoxicity assay from Promega has been used according to manufacturer's instructions. […] After 2 hours of incubation at 37° C., the fluorescence intensity was measured using the Tecan InfiniteF200 fluorescence plate reader (485 nm Ex/520 nm Em). […]

The test system of data set [2] is U373 human glioma cell line. Kind of data set: Quantitative videomicroscopy, U373. In kind it is cell-based. Conditions: at GI50 concentrations (Table 1). The procedure: FIG. 8. In vitro videomicroscopic analysis of the anticancer effects of 1 and its C12-Wittig derivatives 5 and 13. The U373 human glioma cell line was treated with polygodial, 5 and 13 at their mean GI50 concentrations (Table 1) or left untreated. Videomicroscopy enabled taking pictures of the culture field every 4 minutes. The experiment was conducted once in triplicate. While the morphology of cells treated with 1 was fixed over time, 5 and 13 exerted cytostatic effects on U373 cells.
In an effort to gain insight into possible mechanisms associated with antiproliferative properties of 1 and the C12-Wittig derivatives, the morphological changes in cells treated with these compounds were studied with computer-assisted phase-contrast microscopy (Luchetti et al., 2012) (quantitative videomicroscopy).

Data set [3] concerns human MCF-7 breast cancer. The data set is described as follows: MTT antiproliferative assay, MCF-7. Conditions: Homo sapiens, MCF7, 72 h treatment, sextuplicates, read-out: GI50 in vitro values, MCF-7. In kind it is cell-based. The procedure: (§1) Human mammary carcinoma MCF-7 (ATCC HTB22) cells were cultured in RPMI supplemented with 10% FBS. The U87 cells (ATCC HTB-14) were cultured in DMEM culture medium, while the A549 cells (DSMZ ACC107) were cultured in RPMI culture medium supplemented with 10% heat-inactivated FBS. The GBM Hs683 (ATCC HTB-138) cells were cultivated in DMEM supplemented with 10% FBS. The human uterine sarcoma MES-SA (ATCC CRL1966) and MES-SA/D×5 cells were cultured in RPMI-1640 medium supplemented with 10% FBS with MES SA/D×5 maintained in the presence of 500 nM Doxorubicin (Sigma). SKMEL-28 cells (ATCC HTB72) and U373 GBM cells (ECACC 08061901) were cultured in RPMI culture medium supplemented with 10% heat-inactivated FBS. Cell culture media were supplemented with 4 mM glutamine (Lonza code BE17-605E), 100 μg/mL gentamicin (Lonza code 17-5182), and penicillin-streptomycin (200 units/ml and 200 μg/ml) (Lonza code 17-602E). The MDA-MB-231 (ATCC HTB-26) epithelial mammary adenocarcinoma cells were cultured in Eagle's minimum essential medium (EMEM; Invitrogen) containing 5% fetal calf serum (FCS, Cambrex), 2 mM L-glutamine (Invitrogen), 0.06% HEPES (Invitrogen) and penicillin (50 IU/ml)/streptomycin (50 µg/ml; Invitrogen) at 37° C. in a humidified atmosphere of 5% CO2 in air. Transformed mouse NPCs were cultured in suspension under neurosphere conditions at 37° C. in a humidified atmosphere of […] and 5% CO2 in DMEM F12 (Invitrogen 11320-074) supplemented with 1×B27 supplement (Invitrogen 17504-044), 5% penicillin-streptomycin (Biochrom 10378-017), 10 ng/ml EGF (R&D systems 236-EG), 10 ng/ml FGF (PeproTech 100-18B).
(§2) Antiproliferative properties of the synthesized compounds were evaluated by the MTT assay. All compounds were dissolved in DMSO at a concentration of either 100 μM or 50 μM prior to cell treatment. The cells were trypsinized and seeded at various cell concentrations depending on the cell type. The cells were grown for 24 h to 72 h, treated with compounds at concentrations ranging from 0.001 to 100 μM and incubated for 48 or 72 h in 100 or 200 μL media depending on the cell line used. The number of experiments and replicates varied depending on the cell line. Cells treated with 0.1% DMSO were used as a negative control; 1 μM PAO was used as a positive control.
(§3) The synthesized C12-Wittig derivatives were evaluated for antiproliferative activities in a panel of cancer cell lines that included apoptosis-resistant human U373 glioblastoma (GBM) (Lefranc et al., 2013), human A549 non-small cell lung cancer (NSCLC) and human SKMEL-28 melanoma (Mathieu et al., 2009) as well as apoptosis-sensitive human Hs683 anaplastic oligodendroglioma (Lefranc et al., 2013) and human MCF-7 breast cancer (Frolova et al., 2013).
Background: Tetrazolium dyes change colour on reduction, which living cells bring about.

For data set [4], the system named is human SKMEL-28 melanoma. The data set is described as follows: MTT antiproliferative assay, SKMEL-28. Format: cell-based. As to conditions: Homo sapiens, SK-MEL-28, 72 h treatment, sextuplicates, read-out: GI50 in vitro values, SKMEL-28. The procedure: as §1, §2, §3
Data set [5] relates to human Hs683 anaplastic oligodendroglioma. The data set is described as follows: MTT antiproliferative assay, Hs683. As to conditions: Homo sapiens, Hs 683, 72 h treatment, sextuplicates, read-out: GI50 in vitro values, Hs683. In kind it is cell-based. Here is the method:
as §1, §2, §3

Data set [6] deals with U373 cells. The data set is described as follows: Trypan blue viability assay, U373. Format: cell-based, human. As to conditions: 72 h treatment. The procedure:
FIG. 9. Viability of U373 cells by trypan blue staining. U373 cells were treated for 72 h with 1 or 13 and stained with trypan blue. The experiment was conducted once in triplicate. After having taken pictures, cells were fixed with ice-cold methanol and again stained with trypan blue as internal positive control.
To confirm the results obtained in the videomicroscopy experiments, trypan blue assay was employed to detect necrotic and late apoptotic cells that had lost their plasma membrane integrity (FIG. 9). […] These observations support the results of the MTT assay and provide an explanation for the effectiveness of the C12-Wittig derivatives against cells, which display resistance to apoptosis induction. In contrast, at the concentrations necessary to induce cancer cell death 1 behaves as a toxic fixative compound of little promise as a potential drug.

For data set [7], the system named is human U373 glioblastoma (GBM). The data set is described as follows: MTT antiproliferative assay, U373. Format: cell-based. As to conditions: Homo sapiens, U373 MG, 72 h treatment, sextuplicates, read-out: GI50 in vitro values, U373. The procedure:
as §1, §2, §3

Data set [8] deals with panel of cancer cell lines (A549, SKMEL-28, MCF-7, U373, Hs683). Kind of data set: MTT antiproliferative assay, panel of five cancer cell lines. Format: cell-based, human. Conditions: Homo sapiens; mean over five cell lines, 72 h treatment, MTT assay; read-out: GI50 in vitro values, Mean + SEM. Here is the method: as §2, §3
The subject of data set [9] is human A549 non-small cell lung cancer (NSCLC). Kind of data set: MTT antiproliferative assay, A549. In kind it is cell-based. Here is the method:
as §1, §2, §3

For data set [10], the system named is MDR uterine sarcoma cell line MES-SA/Dx5. The data set is described as follows: MTT antiproliferative assay, MDR MES-SA/Dx5. In kind it is cell-based, human. Conditions: for change of potency against MES-SA/Dx5 MDR cell line as compared with parent MES-SA cells: 48 h MTT; for GI50: Homo sapiens, MES-SA/Dx5, 48 h treatment, MTT assay, relative to DMSO control, read-out: GI50 in vitro values, MES-SA/Dx5. The procedure: as §1, §2
Selection of the MES-SA/D×5 cell line was done according to Harker et al. (Harker & Sikic, 1985). The cells were split and allowed to adhere overnight. The next day cells were initially exposed to doxorubicin (DOX) at the concentration of 100 nM, which represented the GI50 concentration. The cells were maintained at this DOX concentration until their growth rate reached that of the untreated cells. The DOX concentration was then increased in two-fold increments following the same growth criteria at each concentration to a final DOX concentration of 500 nM. Each new DOX concentration required approximately 2 passages to reach the growth rate of the untreated cells.
Often, tumors initially respond to chemotherapy but eventually become refractory to the continuing treatment. Such acquired resistance commonly occurs through the development of a multi-drug resistant phenotype (MDR) (Gottesman et al., 2002 and Saraswathy & Gong, 2013) affecting many common chemotherapeutic agents, including the vinca alkaloids (Chen et al., 2000) and taxanes (Geney et al., 2002). In addition, the development of apoptosis resistance and MDR mechanisms is often related and concurrent (Ruefli et al., 2002 and Johnstone et al., 1999), and thus it was of interest to evaluate 5 against MDR cells. Towards this end, the MDR uterine sarcoma cell line MES-SA/D×5, established by growing the parent uterine sarcoma MES-SA in the presence of increasing concentrations of doxorubicin and resistant to multiple functionally and structurally unrelated molecules (Harker & Sikic, 1985), was utilized.

In data set [11] the test system is uterine sarcoma MES-SA cells. Kind of data set: MTT antiproliferative assay, MES-SA. As to conditions: Homo sapiens, MES-SA, 48 h treatment, relative to DMSO control, read-out: GI50 in vitro values, MES-SA. In kind it is cell-based, human. The procedure:
as §1
(§4) Antiproliferative properties of the synthesized compounds were evaluated by the MTT assay. All compounds were dissolved in DMSO at a concentration of either 100 μM or 50 μM prior to cell treatment. The cells were trypsinized and seeded at various cell concentrations depending on the cell type. […]

Data set [12] relates to U87 glioblastoma cell cultures. The data set is described as follows: MTT growth curves, U87. In kind it is cell-based, human. Conditions: apoptosis-resistant U87 GBM; concentrations up to 100 μM. Here is the method: as §1, §4

Data on 4 molecules can be found in patent US20180237362A1, “NOVEL POLYGODIAL ANALOGS FOR THE TREATMENT OF CANCER AND OTHER PROLIFERATIVE DISEASES” (THE BOARD OF REGENTS OF THE UNIVERSITY OF TAXAS SYSTEM, priority 2015, published 2018).

With `C=C(C)[C@@H]1CCC(C)=C[C@H]1c1c(O)cc(CCCCC)cc1O` [CBD, cannabidiol, reference compound], in data set [1], the “cytotoxicity against GBM neurosphere cultures lacking the TRPV1 gene” value is reported as “loses its activity”.
`C#CCCCOC(=O)/C=C/C1=CC[C@H]2C(C)(C)CCC[C@]2(C)[C@H]1C=O` [Compound 13]: the “morphological effect by videomicroscopy” value in data set [2] is given as “inhibited cancer cell proliferation without inducing cell death”. For the same molecule, the GI50 in data set [3] was determined as 30 µM; in data set [4], 36 µM; in data set [5], 33 µM; in data set [7], 35 µM; in data set [8], 33 ± 1 µM; in data set [9] (Homo sapiens, A549, 72 h treatment, MTT assay, sextuplicates, read-out: GI50 in vitro values, A549), 30 µM. For the same molecule, in data set [6], the “viability by trypan blue staining” value is “still alive after 72 hr of treatment”.
On to `CC(=O)O[C@H]1C(=O)[C@@]2(C)[C@H]([C@H](OC(=O)c3ccccc3)[C@]3(O)C[C@H](OC(=O)[C@H](O)[C@@H](NC(=O)c4ccccc4)c4ccccc4)C(C)=C1C3(C)C)[C@]1(OC(C)=O)CO[C@@H]1C[C@@H]2O` [Paclitaxel], for which, in data set [10], the “change of potency against MES-SA/Dx5 MDR cell line as compared with parent MES-SA cells” value is given as “lost their potency by a factor of a thousand” and the GI50 was determined as 10 µM. Moreover, in data set [11], the GI50 worked out at 0.007 µM. Besides, in data set [12], the “effect on proliferation/viability of all cells, U87” value is on record as “no effect on proliferation of ca. 50% of cells”. The “effect on proliferation/viability of all cells, A549” value in data set [9] (apoptosis-resistant A549 NSCLC, concentrations up to 100 μM) is on record as “no effect on proliferation of ca. 50% of cells”.
Turning to `CC[C@]1(O)C[C@@H]2CN(CCc3c([nH]c4ccccc34)[C@@](C(=O)OC)(c3cc4c(cc3OC)N(C)[C@H]3[C@@](O)(C(=O)OC)[C@H](OC(C)=O)[C@]5(CC)C=CCN6CC[C@]43[C@@H]65)C2)C1` [Vinblastine], in data set [10], the “change of potency against MES-SA/Dx5 MDR cell line as compared with parent MES-SA cells” value is “lost their potency by a factor of a thousand” and the GI50 turned out to be 5 µM. Besides, the GI50 in [11] stood at 0.006 µM.
